The source of these data is ChEMBL document CHEMBL1128950, “Synthesis and structure-activity relationships of 9-substituted acridines as endothelin-A receptor antagonists” (Bioorg Med Chem Lett, 1996).

pIC50: −log10 of the molar value.

Holding throughout (assay type): cell-based
The target in assay [1] is T1, Endothelin receptor type B (Homo sapiens, UniProt P24530).
T1 sequence (P24530 whole entry): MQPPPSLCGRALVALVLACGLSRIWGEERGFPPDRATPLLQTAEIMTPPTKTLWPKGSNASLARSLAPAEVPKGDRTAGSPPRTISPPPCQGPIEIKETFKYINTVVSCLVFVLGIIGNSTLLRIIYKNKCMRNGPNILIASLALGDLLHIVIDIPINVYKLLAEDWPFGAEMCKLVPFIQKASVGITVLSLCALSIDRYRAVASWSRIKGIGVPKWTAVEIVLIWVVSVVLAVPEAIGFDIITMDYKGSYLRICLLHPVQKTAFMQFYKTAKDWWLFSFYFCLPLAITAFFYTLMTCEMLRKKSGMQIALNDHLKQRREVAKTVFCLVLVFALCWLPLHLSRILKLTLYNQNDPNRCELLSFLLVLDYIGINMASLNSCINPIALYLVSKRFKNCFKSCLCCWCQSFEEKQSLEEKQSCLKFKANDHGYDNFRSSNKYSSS
In words: Inhibition of binding of [125I]ET1 to cloned human Endothelin B receptor expressed in CHO-K1 cells up to 200 uM; non significant.

Another assay deals with T2, Endothelin-1 receptor (Homo sapiens, UniProt P25101).
T2 sequence (P25101 whole entry): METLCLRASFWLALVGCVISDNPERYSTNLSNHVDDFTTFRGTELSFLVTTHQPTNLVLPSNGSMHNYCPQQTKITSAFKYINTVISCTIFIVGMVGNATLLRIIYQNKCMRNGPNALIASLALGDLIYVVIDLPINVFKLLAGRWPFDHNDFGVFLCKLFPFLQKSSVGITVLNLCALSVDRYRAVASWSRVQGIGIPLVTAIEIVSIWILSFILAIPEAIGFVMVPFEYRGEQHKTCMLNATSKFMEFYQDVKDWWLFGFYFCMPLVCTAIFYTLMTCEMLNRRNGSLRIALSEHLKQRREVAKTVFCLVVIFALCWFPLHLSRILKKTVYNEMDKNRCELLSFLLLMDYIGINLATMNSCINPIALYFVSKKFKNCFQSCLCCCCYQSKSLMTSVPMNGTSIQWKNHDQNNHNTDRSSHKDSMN
Kind of assay: Inhibition of binding of [125I]ET1 to cloned human Endothelin A receptor expressed in LtK- cells.

In assay [2] the target is T1, Endothelin receptor type B. In words: Compound was tested for inhibition of binding of [125I]ET1 to cloned human Endothelin B receptor expressed in CHO-K1 cells.

Take `COC(=O)C(Cc1ccc2c(c1)OCO2)c1c2ccccc2nc2ccccc12` (centres undefined): the IC50 entry in assay [1] is “Not Active”. The same molecule had a negative-log IC50 (pIC50) at Endothelin-1 receptor below 4.60.

Take `NC(=O)C(c1ccc2c(c1)OCO2)c1c2ccccc2nc2ccccc12` (centres undefined): the IC50 result in assay [1] was “Not Active”.

On to `COC(=O)C(c1ccc(Cl)cc1)c1c2ccccc2nc2ccccc12` (centres undefined), for which, in assay [1], the IC50 entry is “Not Active”. On Endothelin-1 receptor, this molecule showed a pIC50 below 4.60.

As for `OCC(c1ccc2c(c1)OCO2)c1c2ccccc2nc2ccccc12` (centres undefined), in assay [1], the IC50 entry is on record as “Not Active”. Also, the pIC50 at Endothelin-1 receptor is 6.05.

As to `CC(C)(C)OC(=O)C(c1ccc2c(c1)OCO2)c1c2ccccc2nc2ccccc12` (centres undefined), in assay [1], the IC50 result is on record as “Not Active”.

As to `COc1ccc(COC(=O)C(c2ccc3c(c2)OCO3)c2c3ccccc3nc3ccccc23)cc1` (centres undefined), in assay [1], the IC50 result was “Not Active”.

`O=C(OCc1ccc(Cl)cc1)C(c1ccc2c(c1)OCO2)c1c2ccccc2nc2ccccc12` (centres undefined): the IC50 result in assay [1] was “Not Active”. Besides, the pIC50 on Endothelin-1 receptor was below 4.60.

Consider `COC(=O)C(c1ccc2c(c1)OCO2)c1c2ccccc2[n+]([O-])c2ccccc12` (centres undefined), for which the IC50 result in assay [1] was “Not Active”. In addition, on Endothelin-1 receptor, the pIC50 is below 4.60.

In the case of `COC(=O)C(c1ccc2c(c1)OCO2)c1c2c(nc3ccccc13)CCCC2` (centres undefined), the IC50 entry in assay [1] is reported as “Not Active”.

Take `COC(=O)C(c1ccc(OC)c(OC)c1)c1c2ccccc2nc2ccccc12` (centres undefined): in assay [1], the IC50 entry is reported as “Not Active”. For the same molecule, at Endothelin-1 receptor, the pIC50 is below 4.60.

As for `COC(=O)C(c1ccc2c(c1)OCO2)C1c2ccccc2CCc2ccccc21` (centres undefined), in assay [1], the IC50 entry is reported as “Not Active”. At Endothelin-1 receptor, this molecule showed a pIC50 below 4.60.

On to `O=CC(c1ccc2c(c1)OCO2)c1c2ccccc2nc2ccccc12` (centres undefined), for which the IC50 entry in assay [1] was “Not Active”.

Consider `COC(=O)C(c1ccc2c(c1)OCO2)c1cc(C)nc2ccccc12` (centres undefined), for which the IC50 result in assay [1] is listed as “Not Active”. The pIC50 at Endothelin-1 receptor is 4.21.

Consider `COC(=O)C(c1ccc2c(c1)OC(C)(C)O2)c1c2ccccc2nc2ccccc12` (centres undefined), for which, in assay [1], the IC50 entry is listed as “Not Active”. On Endothelin-1 receptor, this molecule showed a pIC50 below 4.60.

As for `COC(=O)C(c1ccc([N+](=O)[O-])cc1)c1c2ccccc2nc2ccccc12` (centres undefined), the IC50 result in assay [1] is “Not Active”. The molecule also showed a pIC50 on Endothelin-1 receptor below 4.60.

Take `COC(=O)C(c1ccc2c(c1)OCO2)c1cc(-c2ccccc2)nc2ccccc12` (centres undefined): in assay [1], the IC50 entry is listed as “Not Active”. This molecule showed a pIC50 at Endothelin-1 receptor below 4.60.

Take `COC(=O)C(Cc1c2ccccc2cc2ccccc12)c1ccc2c(c1)OCO2` (centres undefined): the IC50 entry in assay [1] is “Not Active”. Moreover, at Endothelin-1 receptor, the pIC50 was 4.12.

With `COC(=O)C(c1ccc(Cl)c(Cl)c1)c1c2ccccc2nc2ccccc12` (centres undefined), the IC50 entry in assay [1] is reported as “Not Active”. This molecule had a pIC50 on Endothelin-1 receptor below 4.60.

As for `Cc1cc(C(C(N)=O)c2ccc3c(c2)OCO3)c2ccccc2n1` (centres undefined), the IC50 entry in assay [1] was “Not Active”. Moreover, on Endothelin-1 receptor, the pIC50 is 4.43.

As to `COC(=O)C(c1ccc2c(c1)OCO2)C(c1ccccc1)c1ccccc1` (centres undefined), the IC50 entry in assay [1] was “Not Active”. At Endothelin-1 receptor, the pIC50 is below 4.60.

For `COC(=O)C(c1ccc2c(c1)OCO2)c1c2ccccc2nc2c(OC)c(OC)ccc12` (centres undefined), the IC50 entry in assay [1] is “Not Active”. This molecule also had a pIC50 on Endothelin-1 receptor below 4.60.

Consider `O=C(OCc1ccc2c(c1)OCO2)C(c1ccc2c(c1)OCO2)c1c2ccccc2nc2ccccc12` (centres undefined), for which the IC50 result in assay [1] is recorded as “Not Active”. On Endothelin-1 receptor, the pIC50 was 4.48.

As to `COC(=O)C(c1ccc(OC)cc1)c1c2ccccc2nc2ccccc12` (centres undefined), the IC50 entry in assay [1] was “Not Active”. In addition, the pIC50 at Endothelin-1 receptor was below 4.60.

In the case of `O=C(OCc1ccccc1)C(c1ccc2c(c1)OCO2)c1c2ccccc2nc2ccccc12` (centres undefined), in assay [1], the IC50 entry is reported as “Not Active”. Moreover, the pIC50 at Endothelin-1 receptor is 4.24.

For `CC(C)(C)c1ccc(COC(=O)C(c2ccc3c(c2)OCO3)c2c3ccccc3nc3ccccc23)cc1` (centres undefined), the IC50 result in assay [1] is given as “Not Active”. In addition, on Endothelin-1 receptor, the pIC50 is below 4.60.

The molecule `COC(=O)C(c1ccc2c(c1)OCO2)c1c2ccccc2nc2ccccc12` (centres undefined) had a pIC50 in assay [2] below 3.60.

Turning to `COC(=O)C(Oc1c2ccccc2nc2ccccc12)c1ccc2c(c1)OCO2` (centres undefined), in assay [1], the IC50 result is on record as “Not Active”.

`c1ccc2c(Cc3ccc4c(c3)OCO4)c3ccccc3nc2c1`: the IC50 entry in assay [1] is “Not Active”. This molecule also had a pIC50 on Endothelin-1 receptor below 4.60.

The pIC50 is the negative decadic logarithm of the IC50, by convention in mol/L. Read a low pIC50 as a large IC50.
